Calls of active or inactive are those of the source. The rule behind the calls is not given here.
Test system: CCRIS mutagenicity, Ames/micronucleus/aberration tests
Assay: CCRIS mutagenicity studies
[1] = Test System: AMES SALMONELLA TYPHIMURIUM, Strain/Indicator: TA98, Metabolic Activation: NONE, Method: PREINCUBATION
[2] = Test System: AMES SALMONELLA TYPHIMURIUM, Strain/Indicator: TA100, Metabolic Activation: NONE, Method: PREINCUBATION
[3] = Test System: AMES SALMONELLA TYPHIMURIUM, Strain/Indicator: TA100, Metabolic Activation: NONE, Method: STANDARD PLATE

`N#CCc1ccc(Cl)cc1` was tested, and the mutagenic call [1] was “inactive; negative”, the mutagenic call (Test System: AMES SALMONELLA TYPHIMURIUM, Strain/Indicator: TA98, Metabolic Activation: RAT, LIVER, S-9, PHENOBARBITAL AND BETA-NAPHTHOFLAVONE, Method: PREINCUBATION) was “inactive; negative” and the mutagenic call [2] was “inactive; negative”. The mutagenic call (Test System: AMES SALMONELLA TYPHIMURIUM, Strain/Indicator: TA100, Metabolic Activation: RAT, LIVER, S-9, PHENOBARBITAL AND BETA-NAPHTHOFLAVONE, Method: PREINCUBATION) was “inactive; negative”, the mutagenic call (Test System: AMES SALMONELLA TYPHIMURIUM, Strain/Indicator: TA102, Metabolic Activation: NONE, Method: PREINCUBATION) was “inactive; negative” and the mutagenic call (Test System: AMES SALMONELLA TYPHIMURIUM, Strain/Indicator: TA102, Metabolic Activation: RAT, LIVER, S-9, SODIUM PHENOBARBITAL AND 5,6-BENZOFLAVONE, Method: PREINCUBATION) was “inactive; negative”. The mutagenic call (Test System: AMES SALMONELLA TYPHIMURIUM, Strain/Indicator: TA104, Metabolic Activation: NONE, Method: PREINCUBATION) was “inactive; negative”, the mutagenic call (Test System: AMES SALMONELLA TYPHIMURIUM, Strain/Indicator: TA104, Metabolic Activation: RAT, LIVER, S-9, SODIUM PHENOBARBITAL AND 5,6-BENZOFLAVONE, Method: PREINCUBATION) was “inactive; negative” and the mutagenic call (Test System: AMES SALMONELLA TYPHIMURIUM, Strain/Indicator: TA1535, Metabolic Activation: NONE, Method: PREINCUBATION) was “inactive; negative”. For the same molecule, the mutagenic call (Test System: AMES SALMONELLA TYPHIMURIUM, Strain/Indicator: TA1535, Metabolic Activation: RAT, LIVER, S-9, PHENOBARBITAL AND BETA-NAPHTHOFLAVONE, Method: PREINCUBATION) was “inactive; negative”, the mutagenic call (Test System: AMES SALMONELLA TYPHIMURIUM, Strain/Indicator: TA1537, Metabolic Activation: NONE, Method: PREINCUBATION) was “inactive; negative” and the mutagenic call (Test System: AMES SALMONELLA TYPHIMURIUM, Strain/Indicator: TA1537, Metabolic Activation: RAT, LIVER, S-9, PHENOBARBITAL AND BETA-NAPHTHOFLAVONE, Method: PREINCUBATION) was “inactive; negative”. For the same molecule, the mutagenic call (Test System: E. COLI, Strain/Indicator: WP2UVRA/PKM101, Metabolic Activation: NONE, Method: PREINCUBATION) was “inactive; negative”, the mutagenic call (Test System: E. COLI, Strain/Indicator: WP2UVRA/PKM101, Metabolic Activation: RAT, LIVER, S-9, PHENOBARBITAL AND BETA-NAPHTHOFLAVONE, Method: PREINCUBATION) was “inactive; negative” and the mutagenic call (Test System: E. COLI, Strain/Indicator: WP2UVRA, Metabolic Activation: NONE, Method: PREINCUBATION) was “inactive; negative”. For the same molecule, the mutagenic call (Test System: E. COLI, Strain/Indicator: WP2UVRA, Metabolic Activation: RAT, LIVER, S-9, PHENOBARBITAL AND BETA-NAPHTHOFLAVONE, Method: PREINCUBATION) was “inactive; negative”.
In the case of `Clc1nncc2ccncc12`, the mutagenic call [1] is reported as “inactive; negative”, the mutagenic call (Test System: AMES SALMONELLA TYPHIMURIUM, Strain/Indicator: TA98, Metabolic Activation: RAT, LIVER, S-9, PCB, Method: PREINCUBATION) is reported as “inactive; negative” and the mutagenic call [2] is reported as “inactive; negative”. The mutagenic call (Test System: AMES SALMONELLA TYPHIMURIUM, Strain/Indicator: TA100, Metabolic Activation: RAT, LIVER, S-9, PCB, Method: PREINCUBATION) was “inactive; negative”.
With `O=[N+]([O-])c1cc2cccc3c4ccccc4c4cccc1c4c23` the mutagenic call (Test System: AMES SALMONELLA TYPHIMURIUM, Strain/Indicator: TA98, Metabolic Activation: NONE', Method: STANDARD PLATE) was “active; positive” and the mutagenic call [3] was “active; positive”.
For `O=[N+]([O-])c1ccc2c3c(cccc13)CC2`, the mutagenic call (Test System: AMES SALMONELLA TYPHIMURIUM, Strain/Indicator: TA98, Metabolic Activation: NONE, Method: STANDARD PLATE) was “active; positive”, the mutagenic call (Test System: AMES SALMONELLA TYPHIMURIUM, Strain/Indicator: TA98, Metabolic Activation: RAT, LIVER, S-9, AROCLOR 1254, Method: STANDARD PLATE) was “active; positive” and the mutagenic call (Test System: AMES SALMONELLA TYPHIMURIUM, Strain/Indicator: TA98, Metabolic Activation: RAT, LIVER, S-9, KC500 OR PHENOBARBITAL, Method: LIQUID SUSPENSION) was “active; positive”. For the same molecule, the mutagenic call [3] was “active; positive”, the mutagenic call (Test System: AMES SALMONELLA TYPHIMURIUM, Strain/Indicator: TA100, Metabolic Activation: RAT, LIVER, S-9, AROCLOR 1254, Method: STANDARD PLATE) was “active; positive” and the mutagenic call (Test System: AMES SALMONELLA TYPHIMURIUM, Strain/Indicator: TA100, Metabolic Activation: RAT, LIVER, S-9, KC500 OR PHENOBARBITAL, Method: LIQUID SUSPENSION) was “active; positive”. The mutagenic call (Test System: E. COLI, Strain/Indicator: WP2 UVRA, Metabolic Activation: NONE, Method: STANDARD PLATE) was “inactive; negative” and the mutagenic call (Test System: E. COLI, Strain/Indicator: WP2 UVRA, Metabolic Activation: RAT, LIVER, S-9, Method: STANDARD PLATE) was “inactive; negative”.

From PubChem BioAssay AID1259407 (Chemical Carcinogenesis Research Information System (CCRIS), 2018)
